Holding throughout (format): biochemical
For test [1], the target named is Human plasma kallikrein (Homo sapiens (Human), UniProt P03952). The experiment in a line: Determination of the IC50 for plasma kallikrein (fluorogenic substrate H-DPro-Phe-Arg-AFC). As to conditions: 37° C., read-out: IC50 (human PKaI). As for the experimental part:
Determination of the IC50 for Plasma Kallikrein
Human plasma kallikrein (Protogen) was incubated at 37° C. with the fluorogenic substrate H-DPro-Phe-Arg-AFC and various concentrations of the test compound. Residual enzyme activity (initial rate of reaction) was determined by measuring the change in […] at 410 nm and the IC50 value for the test compound was determined.

Test [2] addresses Human KLK1 (Homo sapiens (Human), UniProt P06870). The experiment in a line: Determination of the IC50 for KLK1 (fluorogenic substrate H-DVal-Leu-Arg-AFC). As to conditions: 37° C. As for the experimental part:
Determination of the IC50 for KLK1
Human KLK1 (Callbiochem) was incubated at 37° C. with the fluorogenic substrate H-DVal-Leu-Arg-AFC and various concentrations of the test compound. Residual enzyme activity (initial rate of reaction) was determined by measuring the change in […] at 410 nm and the IC50 value for the test compound was determined.

For test [3], the target named is Factor XIIa (Homo sapiens (Human), UniProt P00748). The experiment in a line: Determination of enzyme selectivity, Factor XIIa. The settings on record: substrate at Km concentration. The procedure: Determination of Enzyme Selectivity
Sequence of Factor XIIa (P00748 373-615): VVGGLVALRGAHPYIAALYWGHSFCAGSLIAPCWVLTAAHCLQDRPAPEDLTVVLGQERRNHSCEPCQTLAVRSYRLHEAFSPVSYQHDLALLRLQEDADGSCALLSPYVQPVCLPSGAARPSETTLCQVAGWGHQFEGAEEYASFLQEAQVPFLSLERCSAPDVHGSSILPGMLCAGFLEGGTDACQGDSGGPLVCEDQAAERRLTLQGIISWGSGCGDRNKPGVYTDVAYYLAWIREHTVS
Human serine protease enzymes plasmin, thrombin, trypsin, Factor Xa and Factor XIIa were assayed for enzymatic activity using an appropriate fluorogenic substrate. Protease activity was measured by monitoring the accumulation of liberated fluorescence from the substrate over 5 minutes. The linear rate of fluorescence increase per minute was expressed as percentage (%) activity. The Km for the cleavage of each substrate was determined by standard transformation of the Michaelis-Menten equation.

Sequence of Human plasma kallikrein (P03952 391-638): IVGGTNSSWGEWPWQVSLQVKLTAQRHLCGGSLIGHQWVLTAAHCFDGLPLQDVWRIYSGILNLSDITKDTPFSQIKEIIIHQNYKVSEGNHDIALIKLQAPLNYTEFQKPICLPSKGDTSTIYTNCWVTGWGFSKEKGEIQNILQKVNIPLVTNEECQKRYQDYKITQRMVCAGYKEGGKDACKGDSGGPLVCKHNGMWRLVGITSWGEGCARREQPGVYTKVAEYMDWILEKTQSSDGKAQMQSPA
Sequence of Human plasma kallikrein (P03952 20-390 partner): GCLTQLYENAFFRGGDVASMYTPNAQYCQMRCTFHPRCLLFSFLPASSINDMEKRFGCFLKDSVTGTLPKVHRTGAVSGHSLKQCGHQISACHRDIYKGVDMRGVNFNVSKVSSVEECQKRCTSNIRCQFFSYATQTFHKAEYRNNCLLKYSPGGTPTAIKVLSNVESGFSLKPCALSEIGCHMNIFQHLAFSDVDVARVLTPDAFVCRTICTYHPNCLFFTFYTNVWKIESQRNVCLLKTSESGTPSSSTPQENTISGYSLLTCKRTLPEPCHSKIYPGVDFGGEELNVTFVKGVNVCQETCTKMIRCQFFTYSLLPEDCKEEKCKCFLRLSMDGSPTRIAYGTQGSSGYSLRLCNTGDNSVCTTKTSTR
Sequence of Human KLK1 (P06870 25-262): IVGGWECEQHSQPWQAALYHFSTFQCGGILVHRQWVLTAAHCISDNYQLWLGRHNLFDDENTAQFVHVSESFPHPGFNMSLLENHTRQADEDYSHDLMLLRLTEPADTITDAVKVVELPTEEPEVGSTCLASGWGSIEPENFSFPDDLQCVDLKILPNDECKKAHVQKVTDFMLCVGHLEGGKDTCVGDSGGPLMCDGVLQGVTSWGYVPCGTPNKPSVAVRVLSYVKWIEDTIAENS

One may read the IC50 as the concentration at which inhibition is half-maximal. `Cc1cc(C(=O)NCc2ccc3c(N)nccc3c2)c(C)n1Cc1ccc(Cn2ccccc2=O)cc1` [Example 44, 2,5-Dimethyl-1-[4-(2-oxo-2H-pyridin-1-ylmethyl)-benzyl]-1H-pyrrole-3-carboxylic acid (1-amino-isoquinolin-6-ylmethyl)-amide]: the IC50 in test [1] was 0.0039 µM; in test [2], 7.09 µM; in test [3] it was above 10000 nM.
Take `Nc1nccc2cc(CNC(=O)c3cnn(CCc4ccc5c(c4)OCCO5)c3)ccc12` [Example 45, 1-[2-(2,3-Dihydro-benzo[1,4]dioxin-6-yl)-ethyl]-1H-pyrazole-4-carboxylic acid (1-amino-isoquinolin-6-ylmethyl)-amide]: the values for the IC50 in test [1], in test [2] and in test [3] were 3.06 µM, 18.6 µM and above 40000 nM, respectively.
In the case of `Nc1nccc2cc(CNC(=O)c3cnn(Cc4cccc(Oc5ccccc5)n4)c3)ccc12` [Example 47, 1-(6-Phenoxy-pyridin-2-ylmethyl)-1H-pyrazole-4-carboxylic acid (1-amino-isoquinolin-6-ylmethyl)-amide], the IC50 was 2.03 µM in test [1], 15.8 µM in test [2] and above 40000 nM in test [3].
For `Nc1nccc2cc(CNC(=O)c3cnn(Cc4cccc(Oc5ncccc5F)c4)c3)ccc12` [Example 48, 1-[3-(3-Fluoro-pyridin-2-yloxy)-benzyl]-1H-pyrazole-4-carboxylic acid (1-amino-isoquinolin-6-ylmethyl)-amide] the same measures were 0.82 µM, 4.32 µM and above 40000 nM.
Turning to `Nc1nccc2cc(CNC(=O)c3cnn(Cc4ccc(Oc5ccccn5)cc4)c3)ccc12` [Example 49, 1-[4-(Pyridin-2-yloxy)-benzyl]-1H-pyrazole-4-carboxylic acid (1-amino-isoquinolin-6-ylmethyl)-amide], the IC50 was 0.186 µM in test [1], 8.09 µM in test [2] and above 40000 nM in test [3].
For `Nc1nccc2cc(CNC(=O)c3cnn(Cc4ccc(COc5cccc(F)n5)cc4)c3)ccc12` [Example 50, 1-[4-(6-Fluoro-pyridin-2-yloxymethyl)-benzyl]-1H-pyrazole-4-carboxylic acid (1-amino-isoquinolin-6-ylmethyl)-amide] the same measures were 0.203 µM, above 40 µM and above 40000 nM.
For the compound `Nc1nccc2cc(CNC(=O)c3cnn(Cc4ccnc(N5CCCC5)c4)c3C(F)(F)F)ccc12` [Example 51, 1-(2-Pyrrolidin-1-yl-pyridin-4-ylmethyl)-5-trifluoromethyl-1H-pyrazole-4-carboxylic acid (1-amino-isoquinolin-6-ylmethyl)-amide], the IC50 is 0.576 µM in test [1], 11.7 µM in test [2] and above 40000 nM in test [3].
Turning to `Nc1nccc2cc(CNC(=O)c3cnn(Cc4cc5cc(OC(F)(F)F)ccc5[nH]4)c3)ccc12` [Example 52, 1-(5-Trifluoromethoxy-1H-indol-2-ylmethyl)-1H-pyrazole-4-carboxylic acid (1-amino-isoquinolin-6-ylmethyl)-amide], the IC50 was 0.3 µM in test [1], above 40 µM in test [2] and above 40000 nM in test [3].
`Nc1nccc2cc(CNC(=O)c3cn(Cc4ccnc(N5CCCC5)c4)nc3C(F)(F)F)ccc12` [Example 54, 1-(2-Pyrrolidin-1-yl-pyridin-4-ylmethyl)-3-trifluoromethyl-1H-pyrazole-4-carboxylic acid (1-amino-isoquinolin-6-ylmethyl)-amide]: the values for the IC50 in test [1], in test [2] and in test [3] were 0.0467 µM, 18.2 µM and above 4000 nM, respectively.
For `CCOc1ccc(Cn2cc(C(=O)NCc3ccc4c(N)nccc4c3)c(C(F)(F)F)n2)cn1` [Example 55, 1-(6-Ethoxy-pyridin-3-ylmethyl)-3-trifluoromethyl-1H-pyrazole-4-carboxylic acid (1-amino-isoquinolin-6-ylmethyl)-amide] the same measures were 0.0792 µM, 3.81 µM and above 10000 nM.
For `Nc1nccc2cc(CNC(=O)c3cn(Cc4ccnc(N5CCC(F)(F)C5)c4)nc3C(F)(F)F)ccc12` [Example 56, 1-[2-(3,3-Difluoro-pyrrolidin-1-yl)-pyridin-4-ylmethyl]-3-trifluoromethyl-1H-pyrazole-4-carboxylic acid (1-amino-isoquinolin-6-ylmethyl)-amide] the same measures were 0.0718 µM, above 10 µM and above 10000 nM.
For `Nc1nccc2cc(CNC(=O)c3cn(Cc4ccc(N5CCC(F)(F)C5)nc4)nc3C(F)(F)F)ccc12` [Example 57, 1-[6-(3,3-Difluoro-pyrrolidin-1-yl)-pyridin-3-ylmethyl]-3-trifluoromethyl-1H-pyrazole-4-carboxylic acid (1-amino-isoquinolin-6-ylmethyl)-amide] the same measures were 0.0149 µM, above 10 µM and above 10000 nM.
`C[C@H]1CCN(c2ccc(Cn3cc(C(=O)NCc4ccc5c(N)nccc5c4)c(C(F)(F)F)n3)cn2)C1` [Example 59, 1-[6-((S)-3-Methyl-pyrrolidin-1-yl)-pyridin-3-ylmethyl]-3-trifluoromethyl-1H-pyrazole-4-carboxylic acid (1-amino-isoquinolin-6-ylmethyl)-amide]: the IC50 in test [1] is 0.00584 µM; in test [2], 4 µM; in test [3], above 1000 nM.
For `Nc1nccc2cc(CNC(=O)c3cn(Cc4ccc(N5CC[C@H](F)C5)nc4)nc3C(F)(F)F)ccc12` [Example 60, 1-[6-((S)-3-Fluoro-pyrrolidin-1-yl)-pyridin-3-ylmethyl]-3-trifluoromethyl-1H-pyrazole-4-carboxylic acid (1-amino-isoquinolin-6-ylmethyl)-amide] the same measures were 0.00961 µM, 9.57 µM and above 10000 nM.
For `Nc1nccc2cc(CNC(=O)c3cn(Cc4ccc(N5CC[C@@H](F)C5)nc4)nc3C(F)(F)F)ccc12` [Example 61, 1-[6-((R)-3-Fluoro-pyrrolidin-1-yl)-pyridin-3-ylmethyl]-3-trifluoromethyl-1H-pyrazole-4-carboxylic acid (1-amino-isoquinolin-6-ylmethyl)-amide], the figures for the IC50 in test [1], in test [2] and in test [3] were 0.0181 µM, 7.66 µM and above 10000 nM, respectively.
For `C[C@H]1CCCN1c1ccc(Cn2cc(C(=O)NCc3ccc4c(N)nccc4c3)c(C(F)(F)F)n2)cn1` [Example 62, 1-[6-((S)-2-Methyl-pyrrolidin-1-yl)-pyridin-3-ylmethyl]-3-trifluoromethyl-1H-pyrazole-4-carboxylic acid (1-amino-isoquinolin-6-ylmethyl)-amide], the IC50 in test [1] was 0.0136 µM; in test [2] it was above 10 µM; in test [3], above 10000 nM.
For `C[C@@H]1CCCN1c1ccc(Cn2cc(C(=O)NCc3ccc4c(N)nccc4c3)c(C(F)(F)F)n2)cn1` [Example 63, 1-[6-((R)-2-Methyl-pyrrolidin-1-yl)-pyridin-3-ylmethyl]-3-trifluoromethyl-1H-pyrazole-4-carboxylic acid (1-amino-isoquinolin-6-ylmethyl)-amide] the same measures were 0.0123 µM, 5.7 µM and above 10000 nM.
For `C[C@@H]1CCN(c2cc(Cn3cc(C(=O)NCc4ccc5c(N)nccc5c4)c(C(F)(F)F)n3)ccn2)C1` [Example 67, 1-[2-((R)-3-Methyl-pyrrolidin-1-yl)-pyridin-4-ylmethyl]-3-trifluoromethyl-1H-pyrazole-4-carboxylic acid (1-amino-isoquinolin-6-ylmethyl)-amide] the same measures were 0.108 µM, 8.88 µM and above 10000 nM.
In the case of `C[C@H]1CCN(c2cc(Cn3cc(C(=O)NCc4ccc5c(N)nccc5c4)c(C(F)(F)F)n3)ccn2)C1` [Example 68, 1-[2-((S)-3-Methyl-pyrrolidin-1-yl)-pyridin-4-ylmethyl]-3-trifluoromethyl-1H-pyrazole-4-carboxylic acid (1-amino-isoquinolin-6-ylmethyl)-amide], the IC50 is 0.059 µM in test [1], 9.76 µM in test [2] and above 10000 nM in test [3].
For `Cc1nc(C)c(N(C)Cc2ccc(Cn3cc(C(=O)NCc4cnc5[nH]ccc5c4)cn3)cc2)s1` [Example 105, 1-(4-{[(2,4-Dimethyl-thiazol-5-yl)-methyl-amino]-methyl}-benzyl)-1H-pyrazole-4-carboxylic acid (1H-pyrrolo[2,3-b]pyridin-5-ylmethyl)-amide] the same measures were 17 µM, above 40 µM and above 40000 nM.
For `O=C(NCc1cnc2[nH]ccc2c1)c1cnn(Cc2cccc(Oc3ncccc3F)c2)c1` [Example 106, 1-[3-(3-Fluoro-pyridin-2-yloxy)-benzyl]-1H-pyrazole-4-carboxylic acid (1H-pyrrolo[2,3-b]pyridin-5-ylmethyl)-amide] the same measures were 12 µM, above 40 µM and above 40000 nM.
On to `O=C(NCc1cnc2[nH]ccc2c1)c1cnn(Cc2ccc(Oc3ccccn3)cc2)c1` [Example 107, 1-[4-(Pyridin-2-yloxy)-benzyl]-1H-pyrazole-4-carboxylic acid (1H-pyrrolo[2,3-b]pyridin-5-ylmethyl)-amide], for which the results for the IC50 in test [1], in test [2] and in test [3] were 2.3 µM, 38.1 µM and above 40000 nM, respectively.
